Laboratory results from PMC2666795, “Bacterial Genome Partitioning: N-Terminal Domain of IncC Protein Encoded by Broad-Host-Range Plasmid RK2 Modulates Oligomerisation and DNA Binding” (Journal of Molecular Biology, 2009).
Each block holds one molecule with its values, some of them ahead of it.

Legend:
IncC2 = biological target: T1, IncC2 (Escherichia coli, UniProt P07673); experiment: glutaraldehyde cross-linking with the IncC1 N-terminal domain; conditions: 2 mM ADP, 10 mM MgCl2, 25 mM phosphate pH 7.5; nucleotide-dependent binding of NTD to IncC2
T1 construct: gene incC; short form 259 aa (IncC1 without residues 1-105), His6-tagged from modified pET28a (pGBT343), expressed in E. coli BL21, nickel-agarose; thrombin cleavage of tag described
T1 sequence (P07673 106-364): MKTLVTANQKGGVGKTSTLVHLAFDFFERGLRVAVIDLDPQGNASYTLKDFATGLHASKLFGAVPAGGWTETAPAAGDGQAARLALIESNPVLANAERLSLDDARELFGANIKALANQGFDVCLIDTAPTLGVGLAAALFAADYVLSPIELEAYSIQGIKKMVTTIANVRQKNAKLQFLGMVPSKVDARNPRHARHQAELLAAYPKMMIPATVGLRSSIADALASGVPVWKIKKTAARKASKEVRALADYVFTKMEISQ

IncC1 = biological target: T2, IncC1 (Escherichia coli, UniProt P07673); experiment: velocity sedimentation (analytical ultracentrifugation), dimer formation; type: binding; conditions: read-out: Kapp
T2 construct: gene incC; full-length 364 aa, His6-tagged from modified pET28a (pGBT342), expressed in E. coli BL21, nickel-agarose; thrombin cleavage of tag described; monomer 40 kDa, dimer 80 kDa with ATP
T2 sequence (P07673 1-364): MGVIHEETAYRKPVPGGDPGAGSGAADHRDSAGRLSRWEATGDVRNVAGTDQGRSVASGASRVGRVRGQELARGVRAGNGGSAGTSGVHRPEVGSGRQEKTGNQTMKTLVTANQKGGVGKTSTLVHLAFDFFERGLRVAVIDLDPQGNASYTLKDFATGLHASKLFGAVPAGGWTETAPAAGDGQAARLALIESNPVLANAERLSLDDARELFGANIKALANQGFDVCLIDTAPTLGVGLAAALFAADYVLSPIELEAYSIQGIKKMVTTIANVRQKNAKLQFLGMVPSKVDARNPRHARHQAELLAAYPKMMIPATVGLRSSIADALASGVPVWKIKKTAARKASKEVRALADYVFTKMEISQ

[1] = biological target: the molecule itself; experiment: AUC; velocity sedimentation, 30 μM IncC1 with varying ATP concentrations, with magnesium; 50 mM sodium phosphate pH 8.0, 100 mM NaCl, 40,000 rpm, 4 °C
[2] = biological target: T3, IncC2 (259 aa), short ParA protein made from the second translational start of incC of plasmid RK2 (plasmid RK2 (IncP-1), UniProt P07673 106-364); experiment: cross-linking; glutaraldehyde 0-0.1%, with 2 mM ATP; 5 μg of each protein in 50 μl, 10 mM MgCl2, 25 mM phosphate buffer pH 7.5; 30 min 37 °C, then 30 min 30 °C with glutaraldehyde; SDS-PAGE, Western blot with anti-IncC; conditions: both partners purified
T3 construct: IncC2, the product of the second translational start of incC of plasmid RK2, 259 aa; it lacks the N-terminal domain (amino acids 1-105) of IncC1; numbers count on IncC1; also called His6-IncC2; source: E. coli BL21 (printed: C600 BL21), modified pET28a vector, purified (nickel-agarose)
T3 sequence (looked up): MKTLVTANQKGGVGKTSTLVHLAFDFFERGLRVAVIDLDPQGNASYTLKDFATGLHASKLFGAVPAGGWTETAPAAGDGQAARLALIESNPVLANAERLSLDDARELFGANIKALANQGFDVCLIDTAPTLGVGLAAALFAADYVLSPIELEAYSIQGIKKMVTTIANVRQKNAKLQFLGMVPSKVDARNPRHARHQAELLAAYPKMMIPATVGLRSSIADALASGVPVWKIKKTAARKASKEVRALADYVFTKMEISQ

Molecule: Nc1ncnc2c1ncn2[C@@H]1O[C@H](COP(=O)(O)OP(=O)(O)OP(=O)(O)O)[C@@H](O)[C@H]1O [ATP]
Kd (IncC1): 7.7 µM

B1: IncC1 (364 aa), long ParA protein encoded by incC of broad-host-range plasmid RK2 (natural protein, plasmid RK2 (IncP-1), UniProt P07673 1-364, looked up)
chain: MGVIHEETAYRKPVPGGDPGAGSGAADHRDSAGRLSRWEATGDVRNVAGTDQGRSVASGASRVGRVRGQELARGVRAGNGGSAGTSGVHRPEVGSGRQEKTGNQTMKTLVTANQKGGVGKTSTLVHLAFDFFERGLRVAVIDLDPQGNASYTLKDFATGLHASKLFGAVPAGGWTETAPAAGDGQAARLALIESNPVLANAERLSLDDARELFGANIKALANQGFDVCLIDTAPTLGVGLAAALFAADYVLSPIELEAYSIQGIKKMVTTIANVRQKNAKLQFLGMVPSKVDARNPRHARHQAELLAAYPKMMIPATVGLRSSIADALASGVPVWKIKKTAARKASKEVRALADYVFTKMEISQ
notes: IncC1, the product of the first translational start of incC (parA) of IncP-1 plasmid RK2, 364 aa; also called His6-IncC1; His-IncC1; source: E. coli BL21 (printed: C600 BL21), modified pET28a vector, purified (nickel-agarose)
stoichiometry N [1]: 2

More lines, main results first:

Kd (IncC1): 54 µM
Molecule: Nc1ncnc2c1ncn2[C@@H]1O[C@H](COP(=O)(O)OP(=O)(O)O)[C@@H](O)[C@H]1O [ADP]
glutaraldehyde cross-linking with the IncC1 N-terminal domain (IncC2): In the presence of either ATP or ADP, the NTD was found to interact with IncC2

binding result [2]: binds
B2: N-terminal domain of IncC1 (amino acids 1-105) (domain or fragment, plasmid RK2 (IncP-1), UniProt P07673 1-105, looked up)
chain: MGVIHEETAYRKPVPGGDPGAGSGAADHRDSAGRLSRWEATGDVRNVAGTDQGRSVASGASRVGRVRGQELARGVRAGNGGSAGTSGVHRPEVGSGRQEKTGNQT
notes: N-terminal domain of IncC1 of plasmid RK2, amino acids 1-105, 11 kDa; also called NTD; IncC1 NTD; source: E. coli, expressed from pSMB315 (pGBT340 with incC1-NTD), purified
